Measured values: US20090209620A1, “Direct Reversal Of The Suppressive Function Of CD4+Regulatory T Cells Via Toll-Like Receptor 8 Signaling” (priority 2005, published 2009)
“Also recorded” adds a separate entry of the source. In the oligonucleotide strings, read from the 5' end, every base follows the letter of its sugar. An asterisk marks phosphorothioate; unmarked linkages are phosphodiester. Other units and linkages are bracketed, terminal groups are in braces. A string of capitals states the bases alone. d = 2'-deoxy (DNA)

Experiments:
CD4+ Treg cells = assay: Pretreatment of Treg cells, then proliferation assay with naive CD4+ T cells (without DCs); format: cell-based, human; settings: Treg cells pretreated 3 days, washed, then mixed with naive CD4+ T cells
Protocol: C. Pretreatment of Treg cells: 1×10^6 Treg cells were cultured in medium containing CpG-A (3 ug/ml), CpG-B (3 ug/ml), LPS (100 ng/ml), TNF.-α (20 ng/ml), IFN-α (100 ng/ml) or IL-6 (100 ng/ml) for 3 days. After three washes, the pretreated Treg cells were cultured with näive CD4^+ T cells in anti-CD3 mAb-coated plates (without DCs) to determine their suppressive function. After 56 h of culture, [3H]thymidine was added at a final concentration of 1 uCi/well, and cultured for an additional 16 h. The incorporation of [^3H]thymidine was measured with a liquid scintillation counter.
To exclude the possibility that the purified naive CD4^+ T cells might have been contaminated with a small number of monocytes or DCs, cultured CD4^+ Treg cells (100% purity) were pretreated with CpG-A (SEQ ID NO: 1) for 3 days. After three washes, the pretreated CD4^+ Treg cells were mixed with naive CD4^+ T cells in anti-CD3 antibody-coated plates to evaluate their ability to suppress the proliferation of naive CD4^+ T cells.
To determine whether the CpG motif in CpG A confers the ability to reverse the suppressive function of CD4^+ Treg cells, CD4^+ Treg cell lines were pretreated for 3 days with CpG-A (SEQ ID NO: 1), non-CpG-A (CG changed to GC in CpG-A; SEQ ID NO: 3), CpG B (SEQ ID NO: 2) or non-CpG-B (CG changed to GC in CpG-B; SEQ ID NO: 4), and used them in proliferation assays following extensive washes.
Treg cells were pretreated with Poly-G2 (SEQ ID NO: 15) in different concentrations of chloroquine to examine whether acidification is required for the function of guanosine containing oligonucleotides. After extensive washes, the pretreated Treg cells were used for functional assays.

Treg102 cells = assay: Reversibility of siRNA-transduced Treg102 cells by Poly-G10 (functional proliferation assay); format: cell-based, human
From the text: Several siRNA sequences (19 nucleotides) for each gene were selected with use of computer-assisted programs. Oligonucleotides containing a siRNA sequence, 8 nucleotide spacers, and a polyT terminator sequence were annealed and then cloned into the HapI and XhoI sites of GFP-expressing pLentilox3.7 vector using methods well known in the art (See, e.g., D. A. Rubinson et al., Nat. Genet. 33, 401-6 (2003)). siRNA was under the control of a U6 promoter. The following DNA sequences used to construct siRNAs for IRAK4, MyD88, and TLR7, 8 and 9, were effective in silencing their corresponding genes:
5×10^6 293T cells were pre-seeded onto 100-mm dishes and transfected with 12 μg siRNA lentiviral DNA, 12 μg VSV-G plasmid DNA and 12 μg packaging viral CMV delta 8.9 plasmid, using Lipofectamine 2000. After the addition of fresh culture medium 8 h later, the cells were cultured for an additional 2-3 days. Viral supernatants were harvested, passed through a […] filter and concentrated by ultracentrifugation at 20,000 rpm for 2 h. Virus pellets were resuspended in a small volume of medium, and viral titers were determined by infecting 293T cells with serially diluted doses of virus. For transduction of T cells, T cells (2×106 ) were first activated by OKT3 (2 ug/ml)-coated plates and then were mixed with the concentrated lentiviral supernatant with a multiplicity of infection (MOI) of 10-15 in a total volume of 0.5 ml T cell medium containing 8 ug/ml polybrene (Sigma), and then span at 1000×g for 1 h at room temperature. After 16 h of incubation, 0.5 ml of T cell medium was added to each well. Forty-eight hours later, the T cells were transduced again with the same concentrated viral supernatants. Transduction efficiency was analyzed at 3 or 4 days post-transduction, and the cells were sorted into GFP^+and GFP^−cells with a FACS ARIA sorter. The sorted cells (GFP^+and GFP^−) and untransduced Treg cells were then used to determine their reversibility by Poly-G10 in functional proliferation assays.
The current model of TLR signaling pathways predicts that TLR1, 2, 5, 6, 7, 8, and 9 use MyD88 as their sole receptor-proximal adaptor to transduce signals, TLR3 uses interferon-regulated factor 3 (IRF3) for the production of IFN-α in response to pathogen recognition, while TLR4 is linked to both MyD88-dependent and MyD88 independent pathways. Since MyD88 is important for the signaling activities of most TLRs, it stood to reason that its dependent pathway, in which IRKA4 transduces signals from MyD88 to TRAF6 and other downstream molecules, would likely be involved in TLR signaling initiated by guanosine-containing oligonucleotides. Four or five eGFP-expressing lentiviral constructs containing U6-driven siRNAs were made for each gene and were tested their abilities to specifically knock down their respective target proteins. In FIG. 3A, the efficiency of knock down by siRNA was determined by Western blot analysis. Both IRAK4 and MyD88 were tagged with a FLAG epitope, and detected by anti-FLAG antibody (M2). 293T cells transfected with either FLAG-IRAK4 or FLAG-MyD88 served as positive controls, while nontranseffected 293T cells were negative controls. The amount of β-actin in each lane served as loading controls for the samples. […] Treg102 cells were next transduced with an IRAK4 siRNAl lentivirus. After 3 days in culture, they were sorted by FACS into transduced (GFP^+) and untransduced (GFP^− control) Treg cell populations (FIG. 3B). The purity of GFP^+ and GFP^− cells was confirmed by FACS analysis. […] This notion was further supported by experiments in which Treg102 cells were transduced with MyD88 siRNAs. […] For FIG. 3C, uninfected parental Treg108 cells and Poly-T10 oligonucleotides served as controls. Data are presented as means±SD and represent results from three independent experiments. Similar results were obtained with Treg164 cell lines. […]

Row | Substance | reversal of suppressive function of CD4+ Treg cells after pretreatment (CD4+ Treg cells) | reversibility of suppression by Poly-G10 (Treg102 cells; IRAK4 siRNA-transduced (GFP+) Treg102 cells) | reversibility of suppression by Poly-G10 (Treg102 cells; MyD88 siRNA-transduced (GFP+) Treg102 cells) | reversibility of suppression by Poly-G10 (Treg102 cells; TLR7 siRNA or TLR9 siRNA-transduced (GFP+) Treg cells) | reversibility of suppression by Poly-G10 (Treg102 cells; TLR8 siRNA-transduced (GFP+) Treg102 cells) | reversibility of suppression by Poly-G10 (Treg102 cells; Treg cells transduced with control siRNA virus) | reversibility of suppression by Poly-G10 (Treg102 cells; untransduced (GFP-) Treg102 cells)
1 | G* GGGGACGATCGTCG* G*G*G*G*G [CpG-A] | reverses their suppressive function; also recorded: reversed the suppressive effect; also recorded: reversed the suppressive activities of CD4^+ Treg cells equally well |  |  |  |  |  | 
2 | Poly-G10: guanosine oligonucleotide with protected phosphorothioate backbone (DNA dG*dG*dG*dG*dG*dG*dG*dG*dG*dG) |  | could not be reversed | completely lost their ability to respond | retained the same reversible suppressive function | could not be reversed | Neither the suppressive activity nor the reversibility of the suppression was affected | reversed as readily as the parental Treg102 cells
